Measured values: patent publication US20070259952A1 (H. LUNDBECK A/S, priority 2006, published 2007)
Like-named read-outs stand apart in the source and are kept apart here.

What was measured:
[1] = system: NMDA-induced currents in pyramidal cells of the medial prefrontal cortex; test: Facilitation of NMDA-induced currents in pyramidal cells of the medial prefrontal cortex in vitro (brain slices, voltage-clamp); type: cell-based, rat
[2] = system: mesocorticolimbic dopaminergic neurons in the VTA; conditions: cited from earlier work; for firing rate of mesocorticolimbic dopaminergic neurons in the VTA: Prisco and Eposito 1995, Di Masico et al 1998
[3] = system: dopamine cells in the VTA; test: In vivo assessment of dopamine neuron firing in rat ventral tegmental area
Experimental: In vivo assessment of dopamine neuron firing in rat ventral tegmental area was conducted as described by Schilstrom et al. (Neuroscience 125:957-64, 2004). Briefly, male Sprague Dawley rats (250-300 g) were anesthetized with chloral hydrate (400 mg/kg i.p.) and mounted in a stereotactic frame. Anesthesia was maintained throughout the experiment with periodical injections of chloral hydrate and body temperature was kept at 37° C. with a rectal thermometer connected to an electrical heating pad. Recording electrodes were pulled in a Narishige vertical puller from borosilicate glass capillaries with outer and inner diameters of 1.50 and 1.17 mm, respectively, and filled with 2% Pontamine Sky Blue in 2 M NaCl. […] The rat was killed with an overdose of anesthetic, and the brain was removed and placed in 25% sucrose 10% paraformaldehyde solution. Sections of the VTA were cut ([…]) and stained with Neutral Red and the recording sites were verified by light microscopy.

**Q.** For CCOc1ccccc1OC(c1ccccc1)C1CNCCO1 (stereo not shown) [reboxetine], which “effect on NMDA-induced currents in pyramidal cells of the prefrontal cortex” value [1] is on record?
**A.** The value was “increases NMDA-induced currents”.

**Q.** And the “excitability and burst firing of dopaminergic neurons in the VTA” value ([2]; Linner et al, 2001)?
**A.** Its value is “enhances the excitability of dopaminergic neurons in the VTA with a preferential activation of their burst firing mode”.

**Q.** With CN(C)CCCC1(c2ccc(F)cc2)OCc2cc(C#N)ccc21 (racemic) [citalopram] as the molecule, how does the Emax ([3]; Rattus norvegicus, Neuron, FIG. 2, read-out: maximal response, burst difference) read?
**A.** Its Emax is roughly 10%.

**Q.** Which “firing rate of mesocorticolimbic dopaminergic neurons in the VTA” value [2] does the source give for CN[C@H]1CC[C@@H](c2ccc(Cl)c(Cl)c2)c2ccccc21 [sertraline] here?
**A.** The value was “slight inhibition”.

**Q.** For CNCCC(Oc1ccc(C(F)(F)F)cc1)c1ccccc1 (stereo not shown) [fluoxetine], which “firing rate of mesocorticolimbic dopaminergic neurons in the VTA” value [2] is on record?
**A.** Its value is “slight inhibition”.

**Q.** With Cc1nc2n(c(=O)c1CCN1CCC(c3noc4cc(F)ccc34)CC1)CCCC2 [risperidone] as the molecule, how does the “effect on NMDA-induced currents in pyramidal cells of the prefrontal cortex” value ([1]; bath application, holding potential −60 mV, FIG. 3) read?
**A.** Its value is “increase NMDA-induced currents”.

**Q.** Which results are given for CN(C)CCC[C@@]1(c2ccc(F)cc2)OCc2cc(C#N)ccc21 [escitalopram, (S)-1-[3-(dimethylamino)propyl]-1-(4-fluorophenyl)-1,3-dihydro-5-isobenzofurancarbonitrile]?
**A.** effect on firing rate of dopamine cells in the VTA ([3]; 320 μg/kg, FIG. 1): elevates firing rate statistically significant; effect on burst firing of dopaminergic cells in the VTA ([3]; doses equal to and above 160 μg/kg, FIG. 2): increases burst firing statistically significant dose-dependently; effect on firing rate of dopamine cells in the VTA ([3]; higher dose 640 μg/kg, FIG. 1): appears to be maintained; burst difference ([3]; highest dose tested 640 μg/kg, FIG. 2): about 20%

**Q.** Which “firing rate of mesocorticolimbic dopaminergic neurons in the VTA” value [2] does the source give for Fc1ccc([C@@H]2CCNC[C@H]2COc2ccc3c(c2)OCO3)cc1 [paroxetine] here?
**A.** The value was “slight inhibition”.

**Q.** Which “firing rate of mesocorticolimbic dopaminergic neurons in the VTA” value [2] does the source give for COCCCC/C(=N\OCCN)c1ccc(C(F)(F)F)cc1 [fluvoxamine] here?
**A.** Its value is “slight inhibition”.

**Q.** Which results are given for CN(C)CCC[C@]1(c2ccc(F)cc2)OCc2cc(C#N)ccc21 [R-citalopram]?
**A.** effect on the escitalopram-induced increase of burst firing ([3]; 320 μg/kg with escitalopram 320 μg/kg, FIG. 2): significantly inhibits the effect of escitalopram; effect on firing rate of dopamine cells in the VTA ([3]; given alone, dose not stated, FIG. 1): unaffected; effect on burst firing of dopaminergic cells in the VTA ([3]; given alone, FIG. 2): no effect on burst firing; effect on the escitalopram-induced increase of firing rate ([3]; pre-treatment with 320 μg/kg before escitalopram 320 μg/kg, FIG. 1): blocked
